Toxic doses and inconclusive results are not listed. Non-standard residues stand in square brackets, D forms with d. Residues, ends and D or L forms follow the SMILES beside them. ξ: configuration not given here. *: point of attachment. ξF = NC(Cc1ccccc1)C(=O)O; Cbz = O=C(OCc1ccccc1)*
Tested on: CD2F1 mice, L1210 leukemia ip, survival T/C
Test: NCI In Vivo Anticancer Drug Screen. Data for tumor model L1210 Leukemia (intraperitoneal) in CD2F1 (CDF1) mice
Conditions: endpoint: mean survival time, higher = longer survival
Outline: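 Transplantable tumor in mice; compound-treated vs vehicle-treated groups. Read-out = treated/control ratio of the measured endpoint.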

[1] = dose: 100.0 mg/kg/injection, schedule: Q01DX009 (ip), vehicle: saline with Tween-80
[2] = dose: 200.0 mg/kg/injection, schedule: Q01DX009 (ip), vehicle: saline with Tween-80
[3] = dose: 400.0 mg/kg/injection, schedule: Q01DX009 (ip), vehicle: saline with Tween-80
[4] = dose: 100.0 mg/kg/injection, schedule: Q01DX001 (ip), vehicle: saline with Tween-80
[5] = dose: 200.0 mg/kg/injection, schedule: Q01DX001 (ip), vehicle: saline with Tween-80
[6] = dose: 400.0 mg/kg/injection, schedule: Q01DX001 (ip), vehicle: saline with Tween-80
[7] = dose: 25.0 mg/kg/injection, schedule: Q01DX009 (ip), vehicle: saline
[8] = dose: 50.0 mg/kg/injection, schedule: Q01DX009 (ip), vehicle: saline
[9] = dose: 100.0 mg/kg/injection, schedule: Q04DX003 (ip), vehicle: saline
[10] = dose: 100.0 mg/kg/injection, schedule: Q04DX003 (ip), vehicle: saline with Tween-80

## COc1ccc(Nc2ccc(C(=C3C=CC(=[N+](C)CCC#N)C=C3)c3ccc(N(C)CCC#N)cc3)cc2)cc1
dose: 100.0 mg/kg/injection, schedule: Q04DX002 (ip), vehicle: saline with Tween-80
  T/C: 90 % of control

## Clc1cccc(Cl)c1C(Cl)Cl
[1]
  T/C: 98 % of control
[2]
  T/C: 98 % of control
[3]
  T/C: 98 % of control

## COc1cc(C(=O)O)cc(OC)c1OC
[4]
  T/C: 97 % of control
[5]
  T/C: 97 % of control
[6]
  T/C: 97 % of control

## CC(C)(C)NC[Si](C)(C)C
[7]
  T/C: 94 % of control
[8]
  T/C: 101 % of control

## Cc1ccc(Nc2ncnc3c2ncn3C2OC(CO)C(O)C2O)cc1 (configuration not stated)
dose: 12.5 mg/kg/injection, schedule: Q01DX005 (ip), vehicle: distilled water + Tween-80
  T/C: 94 % of control
dose: 25.0 mg/kg/injection, schedule: Q01DX005 (ip), vehicle: distilled water + Tween-80
  T/C: 94 % of control
dose: 50.0 mg/kg/injection, schedule: Q01DX005 (ip), vehicle: distilled water + Tween-80
  T/C: 94 % of control
dose: 100.0 mg/kg/injection, schedule: Q01DX005 (ip), vehicle: distilled water + Tween-80
  T/C: 96 % of control
dose: 200.0 mg/kg/injection, schedule: Q01DX005 (ip), vehicle: distilled water + Tween-80
  T/C: 94 % of control

## N=C(N)c1ccc(OCCOc2cccc(N)c2)cc1
[7]
  T/C: 100 % of control
[8]
  T/C: 95 % of control
[1]
  T/C: 93 % of control
dose: 100.0 mg/kg/injection, schedule: Q01DX009 (ip), vehicle: saline
  T/C: 97 % of control

## CC1(C)C=CS1(=O)=O
dose: 50.0 mg/kg/injection, schedule: Q04DX003 (ip), vehicle: saline
  T/C: 98 % of control
dose: 100.0 mg/kg/injection, schedule: Q01DX001 (ip), vehicle: saline
  T/C: 103 % of control
[9]
  T/C: 96 % of control
dose: 200.0 mg/kg/injection, schedule: Q01DX001 (ip), vehicle: saline
  T/C: 102 % of control
dose: 200.0 mg/kg/injection, schedule: Q04DX003 (ip), vehicle: saline
  T/C: 101 % of control

## CC1=CC(=O)C(Sc2ccc(C)cc2)=CC1=O
dose: 50.0 mg/kg/injection, schedule: Q01DX009 (ip), vehicle: saline with Tween-80
  T/C: 94 % of control

## CCOC(=O)Nc1cc(NCC(O)CN(C)c2ccccc2)c([N+](=O)[O-])c(NC(=O)OCC)n1 (configuration not stated)
dose: 100.0 mg/kg/injection, schedule: Q01DX001 (ip), vehicle: carboxymethylcellulose (CMC)
  T/C: 96 % of control
dose: 200.0 mg/kg/injection, schedule: Q01DX001 (ip), vehicle: carboxymethylcellulose (CMC)
  T/C: 91 % of control
dose: 400.0 mg/kg/injection, schedule: Q01DX001 (ip), vehicle: carboxymethylcellulose (CMC)
  T/C: 87 % of control

## [C-]1=CC2C=CC1C1[C-]=CC21.[Cl][Pd][Cl] (configuration not stated)
dose: 12.5 mg/kg/injection, schedule: Q01DX009 (ip), vehicle: saline with Tween-80
  T/C: 94 % of control

## COC(=O)CCC(=O)c1ccc(OC)cc1
dose: 100.0 mg/kg/injection, schedule: Q01DX001 (ip), vehicle: alcohol
  T/C: 92 % of control
dose: 200.0 mg/kg/injection, schedule: Q01DX001 (ip), vehicle: alcohol
  T/C: 92 % of control
dose: 400.0 mg/kg/injection, schedule: Q01DX001 (ip), vehicle: alcohol
  T/C: 101 % of control

## C#CCOCC(O)C[As](=O)(O)c1cccc(Cl)c1 (configuration not stated)
dose: 6.25 mg/kg/injection, schedule: Q04DX003 (ip), vehicle: saline
  T/C: 104 % of control

## Cc1nc2scc(C)c2c(=S)[nH]1
[4]
  T/C: 96 % of control
[5]
  T/C: 97 % of control
[6]
  T/C: 88 % of control

## OC(c1ccccc1)C1CCN(Cc2ccccc2)CC1 (configuration not stated)
[10]
  T/C: 96 % of control

## c1ccc2nc3ccccc3cc2c1
[1]
  T/C: 101 % of control
[2]
  T/C: 103 % of control

## CCOC(=O)CC/C(C)=N\N(C)C
[1]
  T/C: 103 % of control
[2]
  T/C: 97 % of control
[3]
  T/C: 96 % of control

## COc1cc(/C=C2\NC(=O)NC2=O)ccc1O
[4]
  T/C: 94 % of control
[5]
  T/C: 88 % of control
[6]
  T/C: 90 % of control

## CCN(CC)C(=O)c1ccc[n+](Cc2ccc(Cl)c(Cl)c2)c1
[9]
  T/C: 103 % of control

## O=C(CNC(=O)OCc1ccccc1)NCC(=O)NC(Cc1ccccc1)C(=O)O (stereo not drawn) (Cbz-Gly-Gly-[ξF]-OH)
[10]
  T/C: 96 % of control
dose: 200.0 mg/kg/injection, schedule: Q04DX003 (ip), vehicle: saline with Tween-80
  T/C: 93 % of control
dose: 400.0 mg/kg/injection, schedule: Q04DX003 (ip), vehicle: saline with Tween-80
  T/C: 93 % of control

## COC(=O)/C=N/NS(=O)(=O)c1cccc(N)c1
dose: 25.0 mg/kg/injection, schedule: Q04DX003 (ip), vehicle: water
  T/C: 110 % of control
dose: 50.0 mg/kg/injection, schedule: Q04DX003 (ip), vehicle: water
  T/C: 104 % of control
dose: 100.0 mg/kg/injection, schedule: Q04DX003 (ip), vehicle: water
  T/C: 108 % of control
dose: 200.0 mg/kg/injection, schedule: Q04DX003 (ip), vehicle: water
  T/C: 112 % of control

From PubChem BioAssay AID256 (DTP/NCI, 2004)
